# Laboratory results published in paper PMC9669616, “The recommended dosage regimen for caspofungin in patients with higher body weight or hypoalbuminaemia will result in low exposure: Five years of data based on a population pharmacokinetic model and Monte-Carlo simulations” (Frontiers in Pharmacology, 2022).
# Like-named read-outs stand apart in the source and are kept apart here.
# How the values were obtained:
# ALB = settings: cited from earlier work
# Description: The final general and ICU-subgroup PPK models of caspofungin were used for the simulation study to evaluate the degree of exposure. A MCS method published before ([Pfaller et al., 2006]) was used for analyzing the probability of target attainment (PTA) and cumulative fraction of response (CFR) following various caspofungin dosage regimens in all patients and ICU patients. […] Caspofungin was extensively bound to ALB (97%) ([Stone ...
# [1] = cited from earlier work
# Description: Safety also needs to be considered when increasing the caspofungin exposure, because any harm to the patient should be minimal.
# [2] = cited from earlier work; remark: listed apart in the source
# Description: Van den Elst et al. found the caspofungin exposure in ICU patients was low compared with that in healthy volunteers and other (non)critically ill patients ([van der Elst et al., 2017]).
# [3] = general population pharmacokinetic (PPK) model, all patients; type: in vivo, human; set-up: AUC: concentration or dose not given beside the values; settings: for AUC / clearance: general PPK model, mean ± SD (range)
# Method: The patients for the general PPK model came from a single-center, and the study was conducted from June 2014 to June 2019 at the First Affiliated Hospital of Xi’an Jiaotong University. Patients who had been diagnosed with confirmed or probable candidiasis and been treated with caspofungin were included in the study. The identification of infection was according to the IFIs Cooperative Group and the National Institute of Allergy and Infectious Diseases Mycoses Study Group criteria ([De Pauw et al., 2008]). All patients were divided into four groups (ICU patients, SOT patients, HEMT patients, and other patients from respiratory department). Caspofungin was administered intravenously over 1 h. Most of the patients received the standard dosage regimen of 70/50 mg. Patients with hepatic insufficiency (Child-Pugh B) received a reduced dosage regimen of 70/35 mg and patients with body weight (WT) > 75 kg received an increased dosage regimen of 70/70 mg. The study protocol was approved by the institutional review board of the teaching hospital (No.XJTU1AF2017LSK-28). All subjects signed the informed consent before any screening item being performed. History of hypersensitivity, severe intolerance to caspofungin, other constituents change resulted from caspofungin, age <18 years and pregnancies were excluded in the study.
# Factors which may influence the PK parameters of caspofungin were collected for the patients of the general PPK model from the teaching hospital. The factors included demographic factors (sex, age and WT); medical characteristics [carrier mediated transportation (CMT), surgical operation (SOP), baseline disease, organ support therapy]; laboratory data [red blood cells, hemoglobin, hematocrit, white blood cell, lymphocyte, neutrophile, platelets, alanine aminotransferase, aspartate transaminase, alkaline phosphatase, gamma-glutamyl transpeptidase, total bilirubin, albumin (ALB), blood urea nitrogen, uric acid, serum creatinine acid, creatinine clearance rate]; concomitant medications (immunosuppressants, glucocorticoid, antimicrobial agents and antivirals) and other related factors. Because we could not obtain all values of ICU patients for the seven literature studies, only factors which may have a great influence on the PK of caspofungin, such as sex, age, WT, dosage and method of administration, ALB concentrations and whether concomitant continuous renal replacement therapy (CRRT) of ICU patients from the teaching hospital and other seven studies were collected for the construction of the ICU-subgroup PPK model. The selection criteria were based on the results obtained from previous studies of factors influencing the caspofungin plasma concentration ([Spriet et al., 2009]; [Spriet et al., 2011]; [Weiler et al., 2013]; [Muilwijk et al., 2014]; [Sinnollareddy et al., 2015]; [Roger et al., 2017]; [van der Elst et al., 2017]). […] Combined with the clinical situation, the ALB and WT were converted into dichotomous variables according to whether the ALB <35 g/L or ≥35 g/L and whether the WT < 70 kg or ≥70 kg, respectively.
# We collected the pooled data of caspofungin plasma samples from patients at the teaching hospital who received caspofungin prevention or treatment therapies from June 2014 to June 2019. Caspofungin plasma C min samples were collected at interval windows of 22–24 h post-dose, while other caspofungin plasma samples were collected at interval windows of 0–12 h and 12–22 h post-dose. The caspofungin plasma concentrations from the other seven studies of ICU patients—which included both dense sampling and sparse sampling—were directly collected from the relevant published papers, and all related caspofungin plasma concentrations were collected ([Spriet et al., 2009]; [Spriet et al., 2011]; [Weiler et al., 2013]; [Muilwijk et al., 2014]; [Sinnollareddy et al., 2015]; [Roger et al., 2017]; [van der Elst et al., 2017]). […]
# [4] = healthy subjects; ref Stone et al., 2002; cited from earlier work
# Description: Van den Elst et al. found the caspofungin exposure in ICU patients was low compared with that in healthy volunteers and other (non)critically ill patients ([van der Elst et al., 2017]). Many factors could influence the caspo ...
# C. parapsilosis = settings: ref Li et al., 2013; cited from earlier work
# Description: (§1) The first goal of this study was to determine whether the contemporary dosage regimens for caspofungin can achieve the target PK/PD index against Candida isolates in all patients and especially in ICU patients. […] At present, the relationship between caspofungin Cmax and toxicity remains poorly clarified ([Kim et al., 2022]). In this study, we only used the fAUC/MIC as caspofungin PK/PD target for we could get th ...
# C. glabrata = settings: ref Li et al., 2013; cited from earlier work
# Description: as §1
# C. albicans = settings: ref Li et al., 2013; cited from earlier work
# Description: as §1
# [5] = all patients n = 299, final model
# [6] = human, plasma, iv, ICU patients of the teaching hospital
# [7] = human, plasma, iv, all patients n = 299
# [8] = human, plasma, iv, hematopathy patients
# [9] = human, plasma, iv, other patients
# [10] = human, plasma, iv, transplant (SOT) patients
smiles,measurement,setting,value
CC[C@H](C)C[C@H](C)CCCCCCCCC(=O)N[C@H]1C[C@@H](O)[C@@H](NCCN)NC(=O)[C@@H]2[C@@H](O)CCN2C(=O)[C@H]([C@H](O)CCN)NC(=O)[C@H]([C@H](O)[C@@H](O)c2ccc(O)cc2)NC(=O)[C@@H]2C[C@@H](O)CN2C(=O)[C@H]([C@@H](C)O)NC1=O [caspofungin],bound to ALB,"ALB; ref Stone et al., 2004",97%
same,protein binding value,"ALB; used to calculate free drug concentrations in the simulation, ref Andes et al., 2010",97%
same,tolerability,"[1]; 150 mg daily for a median of 24.5 days, ref Cornely et al., 2011",well tolerated without dose-limiting toxicity
same,tolerability,"[1]; patients with invasive candidiasis, 150 mg daily, mean duration 14.2 days, ref Betts et al., 2009",well tolerated
same,"CL, typical value","[2]; ICU patients, day 1, ref Borsuk-De Moor et al., 2020",0.563 L/h
same,"CL, typical value","[2]; ICU patients, day 2, ref Borsuk-De Moor et al., 2020",0.737 L/h
same,"CL, typical value","[2]; ICU patients, day 3, ref Borsuk-De Moor et al., 2020",1.01 L/h
same,decrease in caspofungin exposure,"[2]; ICU patients, increasing clearance with subsequent doses, ref Borsuk-De Moor et al., 2020",> 20%
same,CL,"[2]; ICU patients, ref Martial et al., 2016",0.55 L/h
same,CL,"[2]; critically-ill Chinese patients, ref Li et al., 2021",0.32 L/h
same,CL,"[2]; general patients, ref Wurthwein et al., 2012",0.46 L/h
same,CL,"[2]; general patients, ref Wurthwein et al., 2013",0.40 L/h
same,"θ1, typical population value of CL",[3]; [5],0.32 L/h
same,"θ4, influence of ALB (<35 g/L) on V",[3]; [5],0.49
same,"θ6, influence of WT (≥70 kg) on V",[3]; [5],0.24
same,"θ4, influence of ALB (<35 g/L) on V","[3]; all patients, bootstrap, lower boundary of 95% CI",0.25
same,"θ4, influence of ALB (<35 g/L) on V","[3]; all patients, bootstrap, upper boundary of 95% CI",0.73
same,AUC,[3]; [6],101 µg·h/mL
same,clearance,[3]; [6],7.83 mL/min
same,AUC,[3]; [7],126 µg·h/mL
same,clearance,[3]; [7],7 mL/min
same,AUC,[3]; [8],118 µg·h/mL
same,clearance,[3]; [8],7.5 mL/min
same,AUC,[3]; [9],120 µg·h/mL
same,clearance,[3]; [9],6.83 mL/min
same,AUC,[3]; [10],136 µg·h/mL
same,clearance,[3]; [10],6.67 mL/min
same,Vd,"[3]; human, plasma, iv, all patients n = 299, final model, read-out: θ2, typical population value of V",13.3 L
same,"plasma trough concentration (C min), range",[4],1120 to 1780 ng/mL
same,"MIC, mean",C. parapsilosis,1.5 µg/mL
same,"MIC, range",C. parapsilosis,0.38 to 2 µg/mL
same,"MIC, mean",C. glabrata,0.25 µg/mL
same,"MIC, range",C. glabrata,0.047 to 0.38 µg/mL
same,"MIC, mean",C. albicans,0.19 µg/mL
same,"MIC, range",C. albicans,0.032 to 0.38 µg/mL
